Columns and labels:
Assay type in all cases: functional
Escherichia coli [1] = test: Antibacterial activity against Escherichia coli W3110
Escherichia coli [2] = test: Antibacterial activity against Escherichia coli pTMV19 in presence of mevalonate
Escherichia coli [3] = test: Antibacterial activity against Escherichia coli pTMV19

Structure (SMILES) | inhibition zone (IZ) (Escherichia coli [1]) [mm] | inhibition zone (IZ) (Escherichia coli [2]) [mm] | inhibition zone (IZ) (Escherichia coli [3]) [mm]
O=P(O)(O)C(N1CCCCCCC1)P(=O)(O)O [N-(HEPTAMETHYLENEIMINO)METHYLENEBISPHOSPHONIC ACID] | 0 | – | –
Cc1cc(Br)cnc1NC(P(=O)(O)O)P(=O)(O)O | 0 | 0 | 0
CCCCCCCc1ccc(NC(P(=O)(O)O)P(=O)(O)O)cc1 | 0 | 0 | 0
CC(NC(P(=O)(O)O)P(=O)(O)O)c1cccc2ccccc12 (centres undefined) | 0 | 0 | 0
CCc1ccc(NC(P(=O)(O)O)P(=O)(O)O)cc1 | 0 | – | –
Cc1nc(NC(P(=O)(O)O)P(=O)(O)O)c(Br)cc1Br | 0 | – | –
CCC1CCCCN1C(P(=O)(O)O)P(=O)(O)O (centres undefined) | 0 | – | –
CC1CCCN(C(P(=O)(O)O)P(=O)(O)O)C1 (centres undefined) | 0 | – | –
CCCCCCCCCCCCCCCC(O)(P(=O)(O)O)P(=O)(O)O | 0 | – | –
O=P(O)(O)C(O)(Cc1ccccc1)P(=O)(O)O | 0 | – | –
CC1CCCCN1C(P(=O)(O)O)P(=O)(O)O (centres undefined) | 0 | – | –
O=P(O)(O)C(Nc1ccccn1)P(=O)(O)O | 7 | 12 | 8
O=P(O)(O)CC(c1ccccn1)P(=O)(O)O (centres undefined) | 0 | 0 | 0
CC(C)CCNC(P(=O)(O)O)P(=O)(O)O [(ISOPENTYLAMINO)METHYLENEDIPHOSPHONIC ACID] | 0 | – | –
O=P(O)(O)C(Nc1cccnc1Cl)P(=O)(O)O | 0 | – | –
CCCCCCCCC(O)(P(=O)(O)O)P(=O)(O)O | 9 | 0 | 7
CCCCCCCCCCC(O)(P(=O)(O)O)P(=O)(O)O | 0 | 0 | 0
O.O=P(O)(O)C(O)(Cn1ccnc1)P(=O)(O)O [ZOLEDRONIC ACID] | 0 | – | –
CCCCCN(C)CCC(O)(P(=O)(O)O)P(=O)(O)O [IBANDRONIC ACID] | 0 | – | –
O=P(O)(O)C(Nc1cccc(-c2ccccc2)c1)P(=O)(O)O | 8 | 0 | 8
NCCC(O)(P(=O)(O)O)P(=O)(O)O [PAMIDRONIC ACID] | 0 | – | –
O=P(O)(O)C(Nc1cccnc1)P(=O)(O)O | 0 | – | –

Structure (SMILES) | inhibition zone (IZ) (Escherichia coli [1]) [mm] | inhibition zone (IZ) (Escherichia coli [2]) [mm] | inhibition zone (IZ) (Escherichia coli [3]) [mm]
O=P(O)(O)C(NC1CCCCC1)P(=O)(O)O [(CYCLOHEXYLAMINO)METHYLENEDIPHOSPHONIC ACID] | 7 | 9 | 8
O=P(O)(O)C(N1CCSCC1)P(=O)(O)O [THIOMORPHOLINOMETHYLENEDIPHOSPHONIC ACID] | 0 | – | –
CC1CCCC(C)N1C(P(=O)(O)O)P(=O)(O)O (centres undefined) | 0 | – | –
CN(C)[C@@H]1C(O)=C(C(N)=O)C(=O)[C@@]2(O)C(O)=C3C(=O)c4c(O)cccc4[C@@](C)(O)[C@H]3C[C@@H]12 [TETRACYCLINE] | 21 | 22 | 21
O=P(O)(O)C(Nc1ccc(Cl)cc1Cl)P(=O)(O)O [2,4-DICHLOROPHENYLAMINOMETHYLENEBISPHOSPHONIC ACID] | 0 | – | –
CC(C)c1cccc(NC(P(=O)(O)O)P(=O)(O)O)c1 | 8 | 0 | 9
O=P(O)(O)CC(c1ccncc1)P(=O)(O)O (centres undefined) | 0 | – | –
CC1CCN(C(P(=O)(O)O)P(=O)(O)O)CC1 | 0 | – | –
CC(C)(C)c1cccc(NC(P(=O)(O)O)P(=O)(O)O)c1 | 7 | 0 | 7
CCn1c2ccccc2c2cc(NC(P(=O)(O)O)P(=O)(O)O)ccc21 | 0 | 0 | 0
O=P(O)(O)C(O)(C1CC1)P(=O)(O)O [CYCLOPROPYL(HYDROXY)METHYLENEDIPHOSPHONIC ACID] | 0 | – | –
CC(N)CC(O)(P(=O)(O)O)P(=O)(O)O (centres undefined) | 0 | – | –
O=P(O)(O)C(Nc1ccc(-c2ccccc2)cc1)P(=O)(O)O | 9 | 7 | 8
O=P(O)(O)C(O)(Cc1cccc(F)c1)P(=O)(O)O | 0 | – | –
O=P(O)(O)C(O)(Cc1ccccn1)P(=O)(O)O | 0 | – | –
O=P(O)(O)C(Nc1cc2ccccc2cn1)P(=O)(O)O | 0 | – | –
CCCCCCCCCNC(P(=O)(O)O)P(=O)(O)O [(NONYLAMINO)METHYLENEDIPHOSPHONIC ACID] | 0 | – | –
Cc1cccnc1NCC(P(=O)(O)O)S(=O)(=O)O (centres undefined) | 0 | – | –
Nc1ccc(CC(O)(P(=O)(O)O)P(=O)(O)O)cc1 | 0 | – | –
O=P(O)(O)C(CNc1cccnc1)P(=O)(O)O | 0 | – | –
CCCCNC(P(=O)(O)O)P(=O)(O)O [(BUTYLAMINO)METHYLENEDIPHOSPHONIC ACID] | 0 | – | –
CN[C@@H]1[C@H](O[C@H]2[C@H](O[C@H]3[C@H](O)[C@@H](O)[C@H](N=C(N)N)[C@@H](O)[C@@H]3N=C(N)N)O[C@@H](C)[C@]2(O)C=O)O[C@@H](CO)[C@H](O)[C@H]1O [STREPTOMYCIN] | 15 | 7 | 16

Structure (SMILES) | inhibition zone (IZ) (Escherichia coli [1]) [mm] | inhibition zone (IZ) (Escherichia coli [2]) [mm] | inhibition zone (IZ) (Escherichia coli [3]) [mm]
O=P(O)(O)C(Nc1c(F)c(F)c(F)c(F)c1F)P(=O)(O)O | 0 | – | –
O=P(O)(O)C(NC1CCCC1)P(=O)(O)O [(CYCLOPENTYLAMINO)METHYLENEDIPHOSPHONIC ACID] | 0 | – | –
CC(C)(C)c1cc(NC(P(=O)(O)O)P(=O)(O)O)cc(C(C)(C)C)c1 | 0 | – | –
CCCC(O)(P(=O)(O)O)P(=O)(O)O | 0 | – | –
O=P(O)(O)CC(c1cccnc1)P(=O)(O)O (centres undefined) | 0 | – | –
NCCCCC(O)(P(=O)(O)O)P(=O)(O)O | 0 | – | –
O=P(O)(O)C(Nc1ncc(Br)cc1Br)P(=O)(O)O | 0 | – | –
O=P(O)(O)C(O)(Cc1cccc(Br)c1)P(=O)(O)O | 12 | 0 | 14
O=P(O)(O)C(NC1CCCCCC1)P(=O)(O)O [INCADRONIC ACID] | 0 | – | –
O=P(O)(O)C(O)(Cc1cn2ccccc2n1)P(=O)(O)O | 0 | – | –
O=P(O)(O)C(O)(C1CCC1)P(=O)(O)O [CYCLOBUTYL(HYDROXY)METHYLENEDIPHOSPHONIC ACID] | 0 | – | –
CCCCC(O)(P(=O)(O)O)P(=O)(O)O | 0 | – | –
CCCCCCCCNC(P(=O)(O)O)P(=O)(O)O [(OCTYLAMINO)METHYLENEDIPHOSPHONIC ACID] | 0 | – | –
O=P(O)(O)C(CNc1ccccn1)P(=O)(O)O | 0 | – | –
CO[C@@H]1[C@@H](OC(N)=O)[C@@H](O)[C@H](Oc2ccc3c(O)c(NC(=O)c4ccc(O)c(CC=C(C)C)c4)c(=O)oc3c2C)OC1(C)C [NOVOBIOCIN] | 9 | 15 | 9
O=P(O)(O)C(Nc1ccc(I)cn1)P(=O)(O)O | 7 | 7 | 7
O=P(O)(O)C(O)(CCc1cccnc1)P(=O)(O)O | 0 | – | –
O=P(O)(O)C(O)(CSc1ccncc1)P(=O)(O)O | 0 | – | –
CCCN(CCC)C(P(=O)(O)O)P(=O)(O)O [(DIPROPYLAMINO)METHYLENEDIPHOSPHONIC ACID] | 0 | – | –
CC(C)c1cccc(C(C)C)c1NC(P(=O)(O)O)P(=O)(O)O | 0 | – | –
CN(Cc1ccccc1)C(P(=O)(O)O)P(=O)(O)O | 0 | – | –
O=P(O)(O)C(NC1CCC1)P(=O)(O)O [(CYCLOBUTYLAMINO)METHYLENEDIPHOSPHONIC ACID] | 0 | – | –

Structure (SMILES) | inhibition zone (IZ) (Escherichia coli [1]) [mm] | inhibition zone (IZ) (Escherichia coli [2]) [mm] | inhibition zone (IZ) (Escherichia coli [3]) [mm]
CCCCCCCCCCCCCCCCCC(O)(P(=O)(O)O)P(=O)(O)O | 0 | – | –
O=P(O)(O)C(O)(Cc1cccnc1)P(=O)(O)O [RISEDRONIC ACID] | 0 | – | –
O=P(O)(O)C(Nc1cccc(Oc2ccccc2)c1)P(=O)(O)O | 0 | – | –
NCCCCCC(O)(P(=O)(O)O)P(=O)(O)O [NERIDRONIC ACID] | 0 | – | –
CCC(C)CNC(P(=O)(O)O)P(=O)(O)O (centres undefined) | 0 | – | –
O=P(O)(O)C(Nc1ccc2c(c1)CCC2)P(=O)(O)O | 0 | – | –
CCC(C)NC(P(=O)(O)O)P(=O)(O)O (centres undefined) | 0 | – | –
CCCCCCC(O)(P(=O)(O)O)P(=O)(O)O | 0 | – | –
CCCNC(P(=O)(O)O)P(=O)(O)O [(PROPYLAMINO)METHYLENEDIPHOSPHONIC ACID] | 0 | – | –
CCc1cccc(NC(P(=O)(O)O)P(=O)(O)O)c1 | 0 | – | –
CCCCc1ccc(NC(P(=O)(O)O)P(=O)(O)O)cc1 | 0 | – | –
O=P(O)(O)C(O)(Cc1ccncc1)P(=O)(O)O | 0 | – | –
O=P(O)(O)C(N1CCCCC1)P(=O)(O)O | 0 | – | –
CC1CC(C)CN(C(P(=O)(O)O)P(=O)(O)O)C1 (centres undefined) | 0 | – | –
O=P(O)(O)Cc1cccc(CP(=O)(O)O)c1 | 0 | – | –
O=P(O)(O)C(=Nc1cccnc1)P(=O)(O)O | 0 | – | –
CCc1cccc(NC(P(=O)(O)O)P(=O)(O)O)n1 | 0 | – | –
CCCCOc1ccc(NC(P(=O)(O)O)P(=O)(O)O)cc1 | 0 | – | –
CCCCCCCCCCCCCC(O)(P(=O)(O)O)P(=O)(O)O | 0 | – | –
O=P(O)(O)C(Nc1ccc(Cl)nc1)P(=O)(O)O | 0 | – | –
CCCCCCCCCCCC(O)(P(=O)(O)O)P(=O)(O)O | 0 | – | –
O=P(O)(O)C(Nc1ncccc1COc1ccccc1)P(=O)(O)O | 0 | – | –

— ChEMBL document CHEMBL1138862 (J Med Chem, 2006)
